# Measurements published in US20080071116A1, “Modulators of Lysophosphatidic Acid (Lpa) Signaling and the Use Thereof” (THE BOARD OF REGENTS OF THE UNIVERSITY OF TEXAS SYSTEM, priority 2004, published 2008).
# Tests used:
# LPA3 receptor [1] = molecular target: T1, LPA3 receptor (Homo sapiens, UniProt Q9UBY5); assay: HA-Erk1 phosphorylation in HEK 293 T cells transfected with LPA3; assay type: cell-based; parameters: expressed in transfected cells; details: LPA3 transfected HEK 293 T; 0.01, 0.1, or 1 μM
# T1 sequence (Q9UBY5 1-353): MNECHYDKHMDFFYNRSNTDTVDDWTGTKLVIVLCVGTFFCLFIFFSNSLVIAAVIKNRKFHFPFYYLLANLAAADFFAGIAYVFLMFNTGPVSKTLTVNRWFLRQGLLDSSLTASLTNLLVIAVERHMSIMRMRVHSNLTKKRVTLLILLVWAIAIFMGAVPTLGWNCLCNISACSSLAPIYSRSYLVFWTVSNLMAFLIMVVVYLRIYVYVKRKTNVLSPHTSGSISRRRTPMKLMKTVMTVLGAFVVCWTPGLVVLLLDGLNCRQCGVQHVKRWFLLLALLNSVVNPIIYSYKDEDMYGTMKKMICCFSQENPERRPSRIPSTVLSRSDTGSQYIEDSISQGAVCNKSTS
# Excerpt: (§1) We have also tested kinase activation by the LPA3 receptor subtype using OMPT as a tool. We determined whether activation of the LPA3 receptor by OMPT can be linked to ERK activation (related to MAP kinase signaling pathway) in mammalian cells, HEK 293 T cells, by co-transfecting hemagglutinin (HA)-tagged Erk1 (HA-Erk1) with either a control vector or an expression vector having LPA1, LPA2, or LPA3. […] There is no phosphorylation of HA-Erk1 at lower concentration of LPA or OMPT in the absence of LPA receptors. […] Thus, the data confirmed that OMPT, an LPA derivative, is a selective agonist for LPA3 receptor subtype, capable of inducing MAPK activation.
# PC-3 cells [2] = assay: calcium mobilization assay in androgen insensitive prostate cancer PC-3 cells; assay type: cell-based, human; details: Homo sapiens
# Experimental: The procedures for these calcium mobilization assays are as followed: OVCAR3 cells and PC-3 cells were cultured in RPMI 1640 medium with 10% FBS (fetal bovine serum). HT29 cells were cultured in DMEM (high glucose) medium with 10% FBS. All cells were cultured at about 37° C. in a humidified atmosphere with 5% CO2. After starvation in serum-free medium for about 12-24 hours, cells were harvested and loaded with about 1 μM of Indo-1 AM in serum-free medium for about 45 min at 37° C. Cells were washed in PBS and resuspended at 2×10^6 cells/ml in a [Ca^2+]i assay buffer (Sodium chloride, NaCl, about 140 mM, potassium chloride, KCl, about 2 mM, magnesium chloride, MgCl2, about 1 mM, calcium chloride, CaCl2, about 2 mM, in about 25 mM HEPES buffer at pH 7.4 with about 10 mM of glucose). Cytoplasmic [Ca^2+]i was determined at an excitation wavelength of about 331 nm and an emission wavelength of 410 nm using a fluorescence spectrophotometer (Hitachi, F-4000). Approximately 3×10^6 cells were used for [Ca^2+]l determination in a stirred quartz cuvette kept at about 37° C. OMPT or 18:1 LPA was dissolved in about 0.1% BSA/PBS solution and applied immediately to the cells. To test other LPA derivatives of the invention, cells were exposed to the derivatives for about 3 minutes or for a period of various times in time course related experiments before a LPA agonist, such as 18:1 LPA, OMPT, or other LPAs was applied into the cuvette.
# The concentration of calcium mobilization giving the half-maximal response (EC50) was obtained from the concentration-response curve fitted to a sigmoidal logistic equation, with the maximal calcium response set to 100% using the GraphPad Prism. Maximal response value is expressed as mean +/−s.e.m. EC50 value is expressed with 95% confidence.
# LPA2 receptor [3] = molecular target: T2, LPA2 receptor (Homo sapiens, UniProt Q9HBW0); assay: GTP[γ-35S] binding assay, HEK293 T membranes, LPA2; assay type: biochemical; parameters: expressed in transfected cells; host or cells: HEK293 T cells (crude microsomal membranes); details: HEK293 transfected with LPA2, FIG. 59B
# Experimental: OMPT also enhances GTP [γ-^35S] binding in the cell membrane of HEK293 T cells expressing LPA3. The procedures for these GTP [γ-^35S] binding assays involve co-transfection of HEK293 T cells with expression vectors encoding one of the receptors for LPA (LPA1, LPA2, or LPA3) or S1P (S1P3/Edg3) by calcium phosphate precipitation, together with plasmids encoding three G proteins (rat Gi2α, cow β1, and cow γ2). After about 48 hours, cells were harvested and crude microsomal membranes were prepared. Membranes containing about 5 μg of protein were incubated in 0.1 ml of GTP-binding buffer (50 mM Hepes, 100 mM NaCl, 10 mM MgCl2, pH7.5) having 5 μg of saponin, 0.1% fatty acid-free BSA, 10 μM GDP, 0.1 nM GTP[γ-^35S] (1200 Ci/mmole) together with indicated concentrations of LPA or OMPT for about 30 min at 30° C. Membranes were collected using a 96-well Brandel Cell Harvester (Gaithersburg, Md.), and bound radionuclide was determined using a Packard TopCount liquid scintillation counter.
# LPA2 receptor [4] = molecular target: T2, LPA2 receptor; assay: calcium mobilization in Sf9 insect cells expressing LPA2; assay type: cell-based; parameters: expressed in transfected cells; host or cells: Sf9 insect cells
# PC-3 cells [5] = assay: membrane ruffling and cell migration in PC-3 cells; assay type: cell-based, human
# LPA1 receptor = LPA1 receptor (Homo sapiens, UniProt Q92633); assay: calcium mobilization in Sf9 insect cells expressing LPA1; assay type: cell-based
# PKA = PKA activation in PC-3 cells; assay type: cell-based, human
# LPA2 receptor [6] = molecular target: T2, LPA2 receptor; assay: HA-Erk1 phosphorylation in HEK 293 T cells transfected with LPA2; assay type: cell-based; parameters: expressed in transfected cells; details: LPA2 transfected HEK 293 T; 0.01, 0.1, or 1 μM
# Excerpt: as §1
# LPA3 receptor [7] = molecular target: T1, LPA3 receptor; assay: calcium mobilization in Sf9 insect cells expressing LPA3; assay type: cell-based; parameters: expressed in transfected cells; host or cells: Sf9 insect cells
# T2 sequence (Q9HBW0 whole entry): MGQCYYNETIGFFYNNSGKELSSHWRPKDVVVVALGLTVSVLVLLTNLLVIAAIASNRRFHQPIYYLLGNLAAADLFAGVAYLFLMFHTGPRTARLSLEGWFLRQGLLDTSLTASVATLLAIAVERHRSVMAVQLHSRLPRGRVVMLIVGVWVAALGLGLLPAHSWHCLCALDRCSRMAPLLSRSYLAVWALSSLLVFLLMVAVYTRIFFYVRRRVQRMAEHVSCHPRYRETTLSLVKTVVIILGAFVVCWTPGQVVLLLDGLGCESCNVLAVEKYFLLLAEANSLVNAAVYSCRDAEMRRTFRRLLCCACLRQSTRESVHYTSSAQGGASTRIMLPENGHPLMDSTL
# Chain of LPA1 receptor (Q92633 whole entry): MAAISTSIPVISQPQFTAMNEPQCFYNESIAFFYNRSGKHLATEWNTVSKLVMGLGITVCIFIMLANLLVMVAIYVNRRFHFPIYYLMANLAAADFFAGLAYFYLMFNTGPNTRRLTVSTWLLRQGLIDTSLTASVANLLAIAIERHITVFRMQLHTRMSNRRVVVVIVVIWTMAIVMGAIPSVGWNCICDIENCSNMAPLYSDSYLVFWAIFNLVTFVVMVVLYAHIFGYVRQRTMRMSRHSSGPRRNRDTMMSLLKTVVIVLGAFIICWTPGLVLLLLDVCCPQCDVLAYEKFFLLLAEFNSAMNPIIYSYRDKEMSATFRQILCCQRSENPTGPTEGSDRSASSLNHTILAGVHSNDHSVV
compound,measurement,setting,value
"CCCCCCCC/C=C\CCCCCCCC(=O)OCC(COP(O)(O)=S)OC (racemic) [OMPT, 1-oleoyl-sn2-O-methyl-rac-glycero-3-phosphothionate]",HA-Erk1 phosphorylation,LPA3 receptor [1],stimulates Erk1 phosphorylation at all concentrations tested
same,EC50,PC-3 cells [2],~117 nM
same,activation in GTP[γ-35S] binding assay,LPA2 receptor [3],does not activate
same,calcium mobilization,"LPA2 receptor [4]; Sf9 cells expressing LPA2, FIG. 58B",did not induce calcium mobilization
same,EC50,"LPA2 receptor [4]; Sf9 cells expressing LPA2, read-out: EC50 of increase in intracellular calcium concentration",> 10 µM
same,stimulation of membrane ruffling and cell migration,PC-3 cells [5],induces neither morphology changes nor migration
same,EC50,LPA1 receptor,> 10 µM
same,activation of PKA,PKA,does not
same,HA-Erk1 phosphorylation,LPA2 receptor [6],did not increase HA-Erk1 phosphorylation
same,calcium mobilization,LPA3 receptor [7],efficiently activates calcium mobilization
same,EC50,LPA3 receptor [7]; read-out: EC50 of increase in intracellular calcium concentration,69 nM
